Converted amounts (≈) assume the structure as drawn. Where a SMILES comes first, the peptide text is derived from it. The star is where a group is joined. Palmitoyl = CCCCCCCCCCCCCCCC(=O)*
Experiments:
Format in all cases: cell-based
[1] = tested on: human keratinocytes (HaCaT); assay: MTT assay; details: 24 h incubation at 37 °C, six replicates per concentration, repeated at least twice
Method: (§1) To assess the cytotoxicity of the test lipopeptides (IC50), the classic MTT assay on 96-well polystyrene plates was performed for human keratinocytes (HaCaT) and human cervical adenocarcinoma cell line (HeLa S3) acquired from the ATCC. The assay utilizes colorimetric determination of the cell metabolic activity and the color intensity reflects the number of live cells that can be measured spectrophotometrically. The cell line was cultured in a Dulbecco’s modified Eagle Medium (Invitrogen) supplemented with 10% fetal bovine serum (v/v), 100 units/mL of penicillin, 100 μg/mL of streptomycin, and 2 mM l-glutamine and was stored at 37 °C in a humidified 5% CO2 incubator. Briefly, a day after plating of 500 cells per well, a series of concentrations (0.1–200 μg/mL) of the test compounds were applied. DMSO was added to the control cells at a final concentration of 1.0% (v/v), which was related to the maximal concentration of the solvent compounds used in the experiment. After 24 h of incubation with the lipopeptides at 37 °C in a humidified 5% CO2 incubator, a medium containing 1 mg/mL of MTT (3-(4,5-dimethylthiazol-2-yl)-2,5-diphenyltetrazolium bromide) was added to the wells up to a final concentration of 0.5 mg/mL. Subsequently, the plates were incubated at 37 °C for 4 h. Then, the medium was removed by suction, and the formazan product was solubilized with DMSO. The background absorbance at 630 nm was subtracted from that at 570 nm for each well (Epoch, BioTek Instruments, Winooski, VT, USA). Six replicates were conducted for each concentration. All experiments were repeated at least twice and the resulting IC50 values were calculated with a GraFit 7 software (v. 7.0, Erithacus, Berkley, CA, USA).

[2] = tested on: human cervical adenocarcinoma cell line (HeLa S3); assay: MTT assay; details: 24 h incubation at 37 °C, six replicates per concentration, repeated at least twice
Method: as §1

[3] = tested on: Escherichia coli ATCC 25922; details: ATCC 25922, 24 h
Method: (§2) The Staphylococcus aureus ATCC 25923, Staphylococcus epidermidis ATCC 14990, Escherichia coli ATCC 25922, Pseudomonas aeruginosa ATCC 9027, Candida albicans ATCC 10231, Candida glabrata ATCC 15126, Candida lipolytica PCM 2680-FY, and Candida tropicalis PCM 2709-FY strains were acquired from the Polish Collection of Microorganisms (PCM, Polish Academy of Sciences, Wrocław, Poland) and from the American Type Culture Collection (ATCC). All the strains were stored at −80 °C in Roti-Store cryo vials and before the tests were transferred into fresh Mueller–Hinton broth (MHB, Biocorp, Warsaw, Poland) for bacteria or RPMI-1640 (Sigma-Aldrich, Steinheim, Germany) for fungi and incubated for 24 h at 37 °C. Then, the cultures were seeded on Mueller–Hinton agar (BioMaxima, Lublin, Poland) or Sabouraud dextrose agar (SDA, BioMaxima, Lublin, Poland) plates, respectively, and incubated as just mentioned. These agar cultures were used for further microbiological assays. Cell densities for all assays were adjusted spectrophotometrically (Multiskan GO Microplate Spectrophotometer, Thermo Fisher Scientific, Vantaa, Finland) at 600 and 660 nm for bacteria and fungi, respectively.
(§3) MBECs were determined on 96-well polystyrene flat-bottom plates. For this purpose, 24 h cultures of microorganisms were diluted to obtain final density 5.0 × 10^5 CFU/mL and 2.0 × 10^5 CFU/mL of bacteria and fungi, respectively. Briefly, 100 µL of cell suspension was added into the test plates. After 24 h of incubation at 37 °C the wells were rinsed three times with a phosphate buffer saline (PBS, pH 7.4) to remove non-adherent cells. Subsequently, 100 μL of the test compounds in concentration range (0.5–256 μg/mL) were added to each well. After 24 h of incubation at 37 °C, 20 μL of a cell viability reagent was added (resazurin, 4 g/L; Sigma Aldrich, St. Louis, MO, USA). The MBEC was read after 1 h. The determined values were recorded as the lowest concentration at which the reduction of resazurin (from blue to pink) was lower or equal to 10 ± 0.5% as compared to the positive (100%) and negative (0%) controls. The reduction was monitored by measuring absorbance at 570 nm (reduced) and 600 nm (oxidized) using a microplate spectrophotometer (Multiskan GO Microplate Spectrophotometer, Thermo Fisher Scientific, Vantaa, Finland). All experiments were conducted in triplicate.

[4] = tested on: Candida lipolytica PCM 2680-FY; details: 24 h
Method: as §2, §3

[5] = tested on: Candida albicans ATCC 10231; details: ATCC 10231, 24 h
Method: as §2, §3

[6] = tested on: Candida glabrata ATCC 15126; details: ATCC 15126, 24 h
Method: as §2, §3

[7] = tested on: Staphylococcus epidermidis ATCC 14990; details: ATCC 14990, 24 h
Method: as §2, §3

[8] = tested on: Candida tropicalis PCM 2709-FY; details: PCM 2709-FY, 24 h
Method: as §2, §3

[9] = tested on: Pseudomonas aeruginosa ATCC 9027; details: ATCC 9027, 24 h
Method: as §2, §3

[10] = tested on: Escherichia coli ATCC 25922; details: ATCC 25922, 18 h
Method: as §2
(§4) The MICs were determined by broth microdilution method according to the Clinical and Laboratory Standard Institute guidelines For this purpose, initial inoculums of bacteria (5 × 10^5 CFU/mL) in MHB and yeasts (2 × 10^3 CFU/mL) in RPMI-1640 with 2% D-glucose were exposed to the ranging concentration of lipopeptides (0.5–256 μg/mL) and incubated at 37 °C for 18 h and 24 h, respectively. The experiments were conducted on 96-well microtiter polystyrene plates. The growth was assessed visually after incubation and the MIC was assumed as the lowest peptide concentration at which a noticeable growth of microorganisms was inhibited. All experiments were conducted in triplicate.

[11] = tested on: Candida lipolytica PCM 2680-FY; details: 24 h; remark: listed apart in the source
Method: as §2, §4

[12] = tested on: Candida albicans ATCC 10231; details: ATCC 10231, 24 h; remark: listed apart in the source
Method: as §2, §4

[13] = tested on: Candida glabrata ATCC 15126; details: ATCC 15126, 24 h; remark: listed apart in the source
Method: as §2, §4

[14] = tested on: Staphylococcus epidermidis ATCC 14990; details: ATCC 14990, 18 h
Method: as §2, §4

[15] = tested on: Candida tropicalis PCM 2709-FY; details: PCM 2709-FY, 24 h; remark: listed apart in the source
Method: as §2, §4

[16] = tested on: Pseudomonas aeruginosa ATCC 9027; details: ATCC 9027, 18 h
Method: as §2, §4

Compound | HaCaT IC50 [1] [µg/mL] | HeLa IC50 [2] [µg/mL] | MBEC E. coli [3] [µg/mL] | MBEC C. lipolytica [4] [µg/mL] | MBEC C. albicans [5] [µg/mL] | MBEC C. glabrata [6] [µg/mL] | MBEC S. epidermidis [7] [µg/mL] | MBEC C. tropicalis [8] [µg/mL] | MBEC P. aeruginosa [9] [µg/mL] | MIC E. coli [10] [µg/mL] | MIC C. lipolytica [11] [µg/mL] | MIC C. albicans [12] [µg/mL] | MIC C. glabrata [13] [µg/mL] | MIC S. epidermidis [14] [µg/mL] | MIC C. tropicalis [15] [µg/mL] | MIC P. aeruginosa [16] [µg/mL]
CCCCCCCCCCCCCCCC(=O)N[C@@H](CCCNC(=N)N)C(=O)N[C@@H](CCCCN)C(=O)N[C@@H](CCCCN)C(=O)N[C@@H](CCCCN)C(N)=O [L3, C16-RKKK-NH2] (Palmitoyl-RKKK-NH2) | 23.6 ± 3.4 | 8.4 ± 1.7 | 128 | 32 | 128 | 128 | 32 | 32 | 256 | 8 (≈ 10 µM) | 8 (≈ 10 µM) | 8 (≈ 10 µM) | 64 (≈ 80.4 µM) | 8 (≈ 10 µM) | 8 (≈ 10 µM) | 32 (≈ 40.2 µM)
CCCCCCCCCCCCCCCC(=O)N[C@@H](CCCCN)C(=O)N[C@@H](CCCNC(=N)N)C(=O)N[C@@H](CCCCN)C(=O)N[C@@H](CCCCN)C(N)=O [L4, C16-KRKK-NH2] (Palmitoyl-KRKK-NH2) | 4.3 ± 0.9 | 3.0 ± 0.6 | 64 | 32 | 128 | 128 | 32 | 64 | >256 | 8 (≈ 10 µM) | 1 (≈ 1.26 µM) | 16 (≈ 20.1 µM) | 32 (≈ 40.2 µM) | 8 (≈ 10 µM) | 2 (≈ 2.51 µM) | 32 (≈ 40.2 µM)
CCCCCCCCCCCCCCCC(=O)N[C@@H](CCCCN)C(=O)N[C@@H](CCCCN)C(=O)N[C@@H](CCCNC(=N)N)C(=O)N[C@@H](CCCCN)C(N)=O [L5, C16-KKRK-NH2] (Palmitoyl-KKRK-NH2) | 2.4 ± 0.4 | 6.2 ± 2.7 | 64 | 64 | 256 | 256 | 32 | 128 | 256 | 8 (≈ 10 µM) | 8 (≈ 10 µM) | 32 (≈ 40.2 µM) | 64 (≈ 80.4 µM) | 8 (≈ 10 µM) | 8 (≈ 10 µM) | 64 (≈ 80.4 µM)
CCCCCCCCCCCCCCCC(=O)N[C@@H](CCCCN)C(=O)N[C@@H](CCCCN)C(=O)N[C@@H](CCCCN)C(=O)N[C@@H](CCCNC(=N)N)C(N)=O [L6, C16-KKKR-NH2] (Palmitoyl-KKKR-NH2) | 7.5 ± 0.8 | 3.6 ± 0.5 | 256 | 32 | 128 | 128 | 32 | 128 | 256 | 8 (≈ 10 µM) | 8 (≈ 10 µM) | 32 (≈ 40.2 µM) | 64 (≈ 80.4 µM) | 4 (≈ 5.02 µM) | 8 (≈ 10 µM) | 64 (≈ 80.4 µM)
CCCCCCCCCCCCCCCC(=O)N[C@@H](CCCNC(=N)N)C(=O)N[C@@H](CCCNC(=N)N)C(=O)N[C@@H](CCCCN)C(=O)N[C@@H](CCCCN)C(N)=O [L7, C16-RRKK-NH2] (Palmitoyl-RRKK-NH2) | 8.1 ± 1.1 | 3.0 ± 0.4 | 256 | 16 | 64 | 128 | 64 | 64 | 256 | 8 (≈ 9.71 µM) | 8 (≈ 9.71 µM) | 32 (≈ 38.8 µM) | 16 (≈ 19.4 µM) | 4 (≈ 4.85 µM) | 8 (≈ 9.71 µM) | 64 (≈ 77.7 µM)
